{"source": "patent US6274568A", "about": "“Compounds for altering cell surface sialic acids and methods of use therefor” (priority 1999, dated 2001)", "key": {"[1]": {"system": "NG108-15 cells", "assay": "Uptake of mannosamine precursors and conversion to sialic acids (precursor pool, gangliosides, glycoproteins) in NG108-15 cells, HPLC", "assay_type": "cell-based, mouse neuroblastoma/rat glioma hybrid", "method": "Cells were harvested using hypertonic Ca^2+ - and Mg^2+ -free phosphate-buffered saline containing 1 mM EDTA, collected by centrifugation, and homogenized in ice-cold water using a Potter-Elvehjem glass/Teflon homogenizer. Methanol (2.6 volumes) was added, the suspension mixed and brought to ambient temperature, then chloroform (1.3 volumes, based on the original homogenate) was added and the suspension mixed vigorously. The suspension was centrifuged 30 min at 2,000×g. After collecting the supernatant, the pellet (containing precipitated proteins) was resuspended in water or concentrated ammonium hydroxide and a portion was used for protein assay (BCA, Pierce, Rockford, Ill.). The supernatant was partitioned by adjusting the chloroform-methanol-water ratio to 4:8:5.6 by addition of water, mixing thoroughly, and centrifuging as above. The upper phase was collected and a portion was subjected to reverse phase chromatography, using Sep-Pak C18 cartridges (Waters, Milford, Mass.), to isolate gangliosides (Schnaar, Methods Enzymol. 230:371, 1994).\nTo quantify and identify sialic acids, a portion of resolublized protein, organic/aqueous soluble pool, or reverse-phase purified gangliosides was evaporated to dryness in a 500-μl polypropylene tube and 20 μl of 0.1 M HCl/0.25 M NaCl was added. One Ampliwax bead (Perkin Elmer Corp, Foster City, Calif.) per reaction was added to block evaporation, and the sample hydrolyzed for 3 h at 80° C. Released sialic acids were analyzed by injecting an aliquot (1-10 μl) onto a Dionex high pressure liquid chromatography system (Dionex Corporation, Sunnyvale, Calif.) using a HPIC-AS6 column and a pulsed amperometric detector. Elution solutions were: A, 0.75 mM NaOH; B, 200 mM NaOH; and C, 400 mM sodium acetate in 50 mM NaOH. NeuAc and NeuPr were resolved by elution with 40% A, 50% B, 10% C for 15 min at 1 ml/min. NeuGc was resolved in separate injections using step gradient elution: 0-1.8 min, 18% A, 50% B, 32% C; 2-10 min, 40% B, 60% C. Sialic acids were identified by comparison of their elution time with those of standard NeuAc, NeuPr and NeuGc and were quantified in comparison to a standard curve of commercial NeuAc (for NeuAc and NeuPr) or NeuGc.\nTo confirm that the quantified peaks represented sialic acids, 10 μl of acid hydrolysates were treated with 1 μl of 1 M sodium phosphate (pH 7.2) and 10 μl of 0.1 M NaOH. Neutralized samples were incubated at 37° C. for 2 h with or without 0.9 U of N-acetylneuraminic acid aldolase (Sigma), 32 μM NADH and 0.1 μg lactate dehydrogenase. Sialic acid content in the ganglioside and glycoprotein fractions is expressed per mg of total cell protein. Precursor pool sialic acid (sialic acid plus CMP-sialic acid) was calculated by subtracting the ganglioside value from the organic/aqueous pool value, both expressed per mg of cell protein.\nSialic acid is biosynthesized from the precursor sugar N-acetylmannosamine (FIG. 2). In the present invention, sialic acids are converted on live neuronal cells from NeuAc, which is a key determinant for MAG binding, to NeuGc, which is non-permissive for MAG binding. A potential NeuGc precursor, N-glycolylmannosamine monoacetate (ManNGcMA, FIG. 1, R1 =H) was tested for its ability to generate altered sialic acids in neuronal and non-neuronal cells. N-propanoylmannosamine (ManNPr) and other N-acyl mannosamine derivatives have been used to modify glycoprotein associated sialic acids to the corresponding N-acylneuraminic acid. N-propanoyl-mannosamine (ManNPr), was used as a positive control. […] Cell pellets were fractioned into lipid associated, protein associated, and intracellular (lipid and cytoplasmic which may consist of oligosaccharide-bound, free, or CMP-activated sialic acid) sialic acids and hydrolyzed to release sialic acid. The hydrolyzed samples were then analyzed by HPLC to determine sialic acid content. […]"}, "[2]": {"assay": "in vitro", "conditions": "ng108-15 cells", "quoted_text": "Cell growth rates were determined in control cultures (.box-solid.), in cultures treated with 0.08 mM (.circle-solid.), 0.25 mM (.smallcircle.), or 1 mM (.quadrature.) ManNGcPA, and in cultures treated with 0.25 mM (.tangle-solidup.) or 1 mM (Δ) glucose pentaacetate.\nNG108-15 cells were maintained in Dulbecco's modified Eagle's medium (high glucose formulation) containing 5% iron-enriched calf serum, 100 μM hypoxanthine, 16 μM thymidine, and 5 μM aminopterin. […] Both cell types were cultured at 37° C. in a humidified atmosphere of 90% air/10% CO2. For treatment with sialic acid precursors, mannosamine derivatives were diluted into the appropriate medium and filter sterilized. […] In experiments testing ManNGcPA, all cells (control and experimental) were grown in the presence of 0.5% (v/v) DMSO, the carrier for ManNGcPA."}, "[3]": {"system": "NG108-15 cells", "assay": "O-acetylation state of NeuGc in ManNGcPA-treated NG108-15 cells, thin layer chromatography", "assay_type": "cell-based, mouse neuroblastoma/rat glioma hybrid", "conditions": "1 mM, 48 h", "method": "O-Acetylated sialic acids from bovine submaxillary mucin served as standards. […] A portion of the organic/aqueous soluble pool (predominantly free sialic acids) was subjected to silicic acid thin layer chromatography using propanol-water (1:1) as developing solvent and resorcinol reagent for detection. Sialic acids released from bovine submaxillary mucin, which contain primarily O-acetylated forms of NeuAc (as well as NeuAc, NeuGc, and O-acetylated forms of NeuGc) were prepared and used as positive controls. Lane 1, bovine submaxillary mucin sialic acids; Lane 2, mucin sialic acids pretreated with concentrated ammonium hydroxide for 2 h at ambient temperature to selectively deplete O-acetyl groups; Lane 3, NeuAc standard; Lane 4, NeuGc standard; Lane 5, extract from ManNGcPA-treated NG108-15 cells. O-Acetylated forms of NeuGc, which are reported to migrate 60-100% farther than the parent NeuGc in this system, appear to be absent from the cell extract."}, "[4]": {"conditions": "1 mM, 48 h, listed as ManNGc-OAc"}, "[5]": {"conditions": "1 mM, longer incubation (up to 144 h)"}}}
{"smiles": "CC(=O)OCC(=O)N[C@@H]1C(OC(C)=O)O[C@H](COC(C)=O)[C@@H](OC(C)=O)[C@@H]1OC(C)=O", "note": "(stereo partly drawn) [ManNGcPA, N-glycolylmannosamine pentaacetate]", "values": [{"measurement": "conversion of ganglioside sialic acids to the NeuGc form", "setting": "[1]; 0.02 mM, 48 h", "value": "~50", "unit": "%"}, {"measurement": "conversion to the NeuGc form relative to 5 mM ManNGcMA", "setting": "[1]; 0.1 mM ManNGcPA vs 5 mM ManNGcMA, 48 h", "value": "≈ 2 fold"}, {"measurement": "glycoprotein sialic acids as NeuGc", "setting": "[1]; 0.1 mM, 48 h", "value": 19.8, "unit": "%"}, {"measurement": "intracellular sialic acid in the form of NeuGc", "setting": "[1]; 0.1 mM, 48 h", "value": 20.6, "unit": "%"}, {"measurement": "total lipid associated sialic acid as NeuGc", "setting": "[1]; 0.1 mM, 48 h", "value": 17, "unit": "%"}, {"measurement": "protein sialic acid, average over the experiment (mean±S.D.)", "setting": "[1]; 0.25 mM", "value": "3.8±1.2", "unit": "nmol/mg protein"}, {"measurement": "total ganglioside sialic acid, average over the experiment (mean±S.D.)", "setting": "[1]; 0.25 mM", "value": "3.2±0.7 nmol/mg total cell protein"}, {"measurement": "glycoconjugate sialic acid in the NeuGc form", "setting": "[1]; 0.25 mM or 1 mM, 96 h", "value": "> 70", "unit": "%"}, {"measurement": "reversal of the conversion on withdrawal of the precursor", "setting": "[1]; 0.25 mM, 24 h of chase", "value": "partial reversal of the conversion"}, {"measurement": "conversion of NeuAc to NeuGc in gangliosides", "setting": "[1]; 0.25 mM, 48 h", "value": "> 70", "unit": "%"}, {"measurement": "conversion of NeuAc to NeuGc in glycoproteins", "setting": "[1]; 0.25 mM, 96 h, relative to >70% in gangliosides", "value": "a similar conversion in glycoproteins"}, {"measurement": "conversion from NeuAc to NeuGc (precursor pool)", "setting": "[1]; 1 mM, 48 h", "value": 82, "unit": "%"}, {"measurement": "intracellular sialic acid in the form of NeuGc", "setting": "[1]; 1.0 mM, 48 h", "value": 76.6, "unit": "%"}, {"measurement": "ganglioside (lipid associated) sialic acid as NeuGc", "setting": "[1]; [4]", "value": 51.5, "unit": "%"}, {"measurement": "glycoprotein (protein associated) sialic acid as NeuGc", "setting": "[1]; [4]", "value": 47, "unit": "%"}, {"measurement": "glycoconjugate sialic acid in the NeuGc form", "setting": "[1]; 1 mM, 144 h", "value": 80, "unit": "%"}, {"measurement": "ganglioside sialic acid as NeuGc", "setting": "[1]; [5]", "value": "≈ 80%"}, {"measurement": "glycoprotein sialic acid as NeuGc", "setting": "[1]; [5]", "value": "60-70%"}, {"measurement": "sialic acid precursor pool in the NeuGc form", "setting": "[1]; 1 mM, within 24 h (remained high up to 144 h)", "value": "> 80", "unit": "%"}, {"measurement": "sialic acid precursor pool size", "setting": "[1]; 0.1 or 1.0 mM ManNGcPA, or 5 mM ManNGcMA, 48 h", "value": "none of these treatments significantly altered the sialic acid precursor pool size"}, {"measurement": "change in lipid or protein associated sialic acid compared to DMSO treated control", "setting": "[1]; 0.1 or 1.0 mM, 48 h", "value": "no significant decrease in cell viability, or change in lipid or protein associated sialic acid"}, {"measurement": "total ganglioside sialic acid level", "setting": "[1]; 0.1 or 1.0 mM, 48 h", "value": "not significantly altered"}, {"measurement": "total glycoprotein sialic acid level", "setting": "[1]; 0.1 or 1.0 mM, 48 h", "value": "not significantly altered"}, {"measurement": "increase in potency due to peracetylation", "setting": "[1]; ManNGcPA vs ManNGcMA, 48 h", "value": 100, "unit": "fold"}, {"measurement": "viability at 70 h, 1000 µM", "setting": "[2]", "value": 76, "unit": "%"}, {"measurement": "O-acetylated NeuGc in the precursor pool", "setting": "[3]", "value": "no significant proportion of O-acetylated NeuGc"}, {"measurement": "de-O-acetylation prior to or coordinate with metabolism to sialic acid", "setting": "[3]", "value": "apparently complete de-O-acetylation"}]}
